The term MIC denotes the lowest concentration found to suppress growth. Read a low MIC as greater potency.

A value given as a limit tells only on which side of the number the result lay.

The assay deals with Staphylococcus aureus. Put plainly: Antibacterial activity against methicillin-resistant Staphylococcus aureus. The format is functional.
`COC(=O)[C@H](C)CC(=O)C[C@@H](C)C1=CC[C@@]2(C)[C@@H]3CC[C@H]4C(C)(C)[C@@H](O)CC[C@]4(C)C3=CC[C@]12C` registered an MIC greater than 128 µg/mL.
`COC(=O)/C(C)=C/[C@H](O)C[C@@H](C)[C@]1(C)CC=C2[C@@H]3CC[C@H]4C(C)(C)[C@H](O)CC[C@]4(C)[C@@]3(O)CC[C@]21C` [GARCIHOMBRONANE B] gave an MIC greater than 128 µg/mL.
Then `CC(C)=C/C=C\[C@@H](C)[C@]1(C)CC=C2[C@@H]3CC[C@H]4C(C)(C)[C@H](O)CC[C@]4(C)[C@@]3(O)CC[C@]21C` [GARCIHOMBRONANE F], with greater than 128 µg/mL.
Then `C/C(=C\C=C/[C@@H](C)[C@]1(C)CC[C@]2(C)C1=CC[C@@]1(O)[C@H]2CC[C@H]2C(C)(C)[C@H](O)CC[C@@]21C)C(=O)O` [GARCIHOMBRONANE G], with greater than 128 µg/mL; and `C/C(=C\CC[C@@H](C)[C@]1(C)CC[C@]2(C)C1=CC[C@@]1(O)[C@H]2CC[C@H]2C(C)(C)[C@H](O)CC[C@@]21C)C(=O)O` [GARCIHOMBRONANE H], with greater than 128 µg/mL.
As for `C/C(=C\CC[C@@H](C)[C@]1(C)CC[C@]2(C)C1=CC[C@@]1(O)[C@H]2CC[C@H]2C(C)(C)[C@@H](O)CC[C@@]21C)C(=O)O` [GARCIHOMBRONANE I], the figure is greater than 128 µg/mL; as for `COC(=O)[C@H](C)CC(=O)C[C@@H](C)C1=CC[C@@]2(C)[C@@H]3CC[C@H]4C(C)(C)[C@H](O)CC[C@]4(C)C3=CC[C@]12C` [GARCIHOMBRONANE J], greater than 128 µg/mL.
Compound `COC(=O)/C(C)=C/[C@H](O)C[C@@H](C)[C@]1(C)CC=C2C3=C(CC[C@]21C)[C@@]1(C)CC[C@@H](O)C(C)(C)[C@@H]1CC3` [GARCIHOMBRONANES C] had an MIC greater than 128 µg/mL.
As to `C[C@H](CC(=O)C[C@@H](C)C1=CC[C@@]2(C)[C@@H]3CC[C@H]4C(C)(C)[C@@H](O)CC[C@]4(C)C3=CC[C@]12C)C(=O)O` [GARCIHOMBRONANES D], the MIC was greater than 128 µg/mL.
Then `C[C@H](CC(=O)C[C@@H](C)C1=CC[C@@]2(C)[C@@H]3CC[C@H]4C(C)(C)[C@H](O)CC[C@]4(C)C3=CC[C@]12C)C(=O)O` [GARCIHOMBRONANES E], with greater than 128 µg/mL.

For the origin of these results see ChEMBL document CHEMBL1141775, “Friedolanostanes and lanostanes from the leaves of Garcinia hombroniana” (2005).
